# In patent US20210308133A1, “METHODS AND COMPOSITIONS FOR INHIBITING MUSCLE WASTING” (THE BOARD OF REGENTS OF THE UNIVERSITY OF TEXAS SYSTEM, priority 2020, published 2021):
# What was measured:
# LLC tumor-bearing mice [1] = conditions: as reported previously (ref 8); cited from earlier work
# [2] = system: p38α MAPK-mediated myogenic differentiation of C2C12 myoblasts; test: myogenic differentiation of C2C12 myoblasts (MHC expression); assay type: cell-based, Murine; conditions: 96 hours differentiation
# Source text: (§1) Western blotting. All procedures were adhered to our previous publication ^12. The following primary antibodies were used: anti-p300 (1:500, sc584, Santa Cruz), anti-C/EBPβ (1:1000, MA1-827, Thermo Fisher), anti-pT188-C/EBPβ (1:1000, 3084, Cell Signaling Technology), anti-TLR4 (1:500, sc16240, Santa Cruz), anti-p38α MAPK (1:500, sc271120, Santa Cruz), anti-p38s MAPK (1:500, 2339, Cell Signaling Technology), anti-p38 MAPK (1:1000, 9212, Cell Signaling Technology), anti-p-p38 MAPK (1:1000, 4511, Cell Signaling Technology), anti-MAFbx (1:1000, AP2041, ECM Bioscience), anti-UBR2 (1:500, NBP1-45243, Novus Biologicals), anti-LC3 (1:2000, NB100-2220, Novus Biologicals) and anti-MHC (1:1000, MAB4470, R&D Systems). Antibody against acetylated Lys-39 of C/EBPβ (1:2000) was generated as previously described ^12. […] (SEQ ID NO: 1). Data were normalized to α-Tubulin (Development Studies Hybridoma Bank at the University of Iowa, Iowa City, Iowa).
# LLC tumor-bearing mice [3] = test: muscle wasting in LLC tumor-bearing mice; assay type: in vivo; conditions: 0.5 mg/kg/day i.p. from day 7 for 2 weeks
# Method: Mice were euthanized on day 21. The tumor was isolated and weighed, and then the net body weight was measured. Muscle samples were collected immediately for analyses of muscle wasting. […] Catabolic markers in TA muscle lysates were analyzed by Western blotting. […] Grip strength was measured on the day of euthanasia. […] H&E-stained TA cross sections were analyzed for the myofiber cross-sectional area. * signifies a statistically significant difference (p<0.05) determined by one-way ANOVA (FIGS. 5A-E) or Chi-square test (FIG. 5F).
# Animal use. Experimental protocols were pre-approved by the institutional Animal Welfare Committee at the University of Texas Health Science Center at Houston. LLC cells (1×10^6 in […]) were injected subcutaneously into the flanks of 8-week-old male C57B16 mice, TLR4^−/− mice in the C57BL/6 background ^17, or p38β MAPK muscle-specific knockout and p38β MAPK-floxed mice in the C57BL/6 background ^18. […] DMSO was injected accordingly as vehicle control. Plasmid encoding the p300-S12A mutant was transfected into TA muscle by electroporation on day 7 and day 14 following LLC implantation as described previously ^12. The contralateral TA was transfected with an empty vector as control. […] On day 21, mice were euthanized, and muscle samples were harvested for further analyses. For survival study, orthotopic implantation of KPC cells was performed based on the procedures by Zhu et al. ^19. Briefly, a longitudinal incision was made to open the abdominal cavity for pancreas exposure. Then, 2×10^6 KPC cells suspended in 20 μl PBS were injected to the tail of pancreas.
# as §1
# Fluorescence microscopy and histology study. C2C12 myotubes were stained with anti-MHC antibody (1:1000, MAB4470, R&D Systems) and anti-mouse Alexa Fluor® Plus 488 secondary antibody (1:200, A32723, ThermoFisher), and examined using a Zeiss Axioskop 40 microscope and a Zeiss Axiocam MRM camera system controlled by Axiovision Release 4.6 imaging software. Acquired images were edited using the Photoshop software. Myotube diameter was measured in MHC-stained myotubes as previously described ^12. Cross-sectional area of H&E-stained muscle sections was quantified by using the ImageJ software (NIH). Approximately 100 myofibers from each of 5 random views were quantified.
# C2C12 myotubes = test: LCM-induced loss of MHC and myotube mass in C2C12 myotubes; assay type: cell-based, Murine; conditions: 500 nM, LCM 72 hrs
# Source text: as §1
# Fluorescence microscopy and histology study. […] Myotube diameter was measured in MHC-stained myotubes as previously described ^12. Cross-sectional area of H&E-stained muscle sections was quantified by using the ImageJ software (NIH). Approximately 100 myofibers from each of 5 random views were quantified.
# UBR2 = test: LCM-induced UBR2 upregulation in C2C12 myotubes, Western blotting; assay type: cell-based, Murine; conditions: LCM 8 hours, concentration-dependent
# Source text: as §1
# KPC tumor-bearing mice = test: survival and muscle wasting of mice bearing orthotopic KPC pancreatic tumor; assay type: in vivo
# Method: Survival of KPC tumor-bearing mice was recorded and analyzed using the Kaplan-Meier survival curve. […] Forelimb grip strength of the mice was monitored over the course of the survival study. Data were analyzed by 2-way ANOVA. * signifies a statistically significant difference (p<0.05).
# At the end point, both of DMSO or nilotinib-treated KPC tumor-bearing mice were euthanized. Tumors were isolated and weighted (left panel). Net body weight was measured (right panel).
# Animal use. Experimental protocols were pre-approved by the institutional Animal Welfare Committee at the University of Texas Health Science Center at Houston. LLC cells (1×10^6 in […]) were injected subcutaneously into the flanks of 8-week-old male C57B16 mice, TLR4^−/− mice in the C57BL/6 background ^17, or p38β MAPK muscle-specific knockout and p38β MAPK-floxed mice in the C57BL/6 background ^18. […] DMSO was injected accordingly as vehicle control. Plasmid encoding the p300-S12A mutant was transfected into TA muscle by electroporation on day 7 and day 14 following LLC implantation as described previously ^12. The contralateral TA was transfected with an empty vector as control. Development of cachexia was monitored by body weight and forelimb grip strength test, and usually took place within 21 days after implantation. On day 21, mice were euthanized, and muscle samples were harvested for further analyses. For survival study, orthotopic implantation of KPC cells was performed based on the procedures by Zhu et al. ^19. Briefly, a longitudinal incision was made to open the abdominal cavity for pancreas exposure. Then, 2×10^6 KPC cells suspended in 20 μl PBS were injected to the tail of pancreas.
# p38 MAPK = p38 MAPK activation and catabolic response in primary human myotubes treated with H1299 cell-conditioned medium; assay type: cell-based; conditions: 500 nM
# Source text: as §1
# [4] = system: p38β MAPK-mediated activation of p300 and C/EBPβ; test: LCM-induced p300 activation (Ser-12 phosphorylation) and C/EBPβ acetylation in C2C12 myotubes, Western blotting; assay type: cell-based, Murine; conditions: LCM 2 h, concentration-dependent
# Method: Cell cultures. Murine C2C12 myoblasts (American Type Culture Collection, ATCC) and human skeletal myoblasts (GIBCO®) were grown in growth medium (DMEM supplemented with 10% fetal bovine serum) at 37° C. under 5% CO2. Myoblast differentiation was induced at 85% confluence with differentiation medium (DMEM supplemented with 4% heat-inactivated horse serum in) for 96 hrs. Preconditioned medium from 48-hour cultures of Lewis lung carcinoma cells (National Cancer Institute, Frederick, Md.), H1299 human lung carcinoma cells (ATCC) or KPC cells (a gift from Dr. Elizabeth Jaffee of Johns Hopkins University) 14 were collected and centrifuged (1000×g, 5 min). Conditioned medium of non-tumorigenic NL20 cells (human lung epithelial cells, ATCC) was used as control. The supernatant was used to treat myotubes (25% final volume in fresh medium) when indicated and replaced every 24 h. […] All cell lines were tested negative for mycoplasma contamination. Cell culture-based experiments were replicated independently for 3 times.
# Western blotting. All procedures were adhered to our previous publication ^12. […]
# [5] = humans, 24 hours after first PO administration of 50 mg; cited from earlier work
# p38β MAPK = p38β MAPK (Homo sapiens, UniProt Q15759); conditions: p38β MAPK vs p38α MAPK; cited from earlier work
# p38β MAPK, sequence (Q15759 whole entry): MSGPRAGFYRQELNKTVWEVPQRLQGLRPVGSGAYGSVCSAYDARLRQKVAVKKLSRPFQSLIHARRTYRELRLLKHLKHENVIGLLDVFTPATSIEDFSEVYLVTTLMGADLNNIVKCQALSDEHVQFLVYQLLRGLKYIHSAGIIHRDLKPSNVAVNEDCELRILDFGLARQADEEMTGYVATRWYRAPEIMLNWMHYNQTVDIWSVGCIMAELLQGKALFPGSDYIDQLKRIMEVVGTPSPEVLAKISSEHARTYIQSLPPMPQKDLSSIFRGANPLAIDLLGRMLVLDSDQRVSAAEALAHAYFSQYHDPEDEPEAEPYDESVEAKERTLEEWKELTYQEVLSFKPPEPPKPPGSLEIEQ
smiles,measurement,setting,value
Oc1ccc(-c2nc(-c3ccncc3)c(-c3ccc(F)cc3)[nH]2)cc1 [SB202190],LLC tumor-induced muscle wasting in mice,LLC tumor-bearing mice [1],attenuates
same,onset of myoblast differentiation (MHC expression at 24 and 48 hours),[2]; 10 μM,delayed
Cc1cn(-c2cc(NC(=O)c3ccc(C)c(Nc4nccc(-c5cccnc5)n4)c3)cc(C(F)(F)F)c2)cn1 [nilotinib],LLC tumor growth,LLC tumor-bearing mice [3],without affecting tumor growth
same,activation of p300 (Ser-12 phosphorylation and Lys-39 acetylation of C/EBPβ) in TA muscle,LLC tumor-bearing mice [3],abolished
same,increase in autophagosome formation (LC3-II levels),LLC tumor-bearing mice [3],blockade
same,loss of MHC in muscle,LLC tumor-bearing mice [3],blockade
same,loss of TA and EDL weight,LLC tumor-bearing mice [3],attenuated
same,loss of body weight,LLC tumor-bearing mice [3],protected against the loss of body weight
same,loss of muscle strength (grip strength),LLC tumor-bearing mice [3],attenuated
same,myofiber cross-sectional area in TA,LLC tumor-bearing mice [3],preserved myofiber mass
same,upregulation of E3 ligases UBR2 and atroginl/MAFbx in TA muscle,LLC tumor-bearing mice [3],blockade
same,LCM-induced loss of myosin heavy chain (MHC),C2C12 myotubes,resistant
same,LCM-induced loss of myotube mass (myotube diameters),C2C12 myotubes,resistant
same,LCM-induced upregulation of UBR2,UBR2,inhibited
same,median survival,KPC tumor-bearing mice; 0.5 mg/kg/day i.p. from day 5 until end point,31 days
same,tumor volume at the end point versus DMSO,"KPC tumor-bearing mice; 0.5 mg/kg/day i.p., at end point",without significant difference in tumor volume
same,loss of muscle function measured as grip strength,"KPC tumor-bearing mice; 0.5 mg/kg/day i.p., over the course of the survival study",attenuated
same,C/EBPβ phosphorylation on Thr-188,p38 MAPK; 1 h,blockade
same,p38 MAPK activation by H1299 conditioned medium,p38 MAPK; 1 h,abrogated
same,upregulation of E3 ligase UBR2,p38 MAPK; 8 h,blockade
same,C/EBPβ acetylation on Lys-39,[4],inhibited
same,serum concentration,[5],approximately 400 ng/ml
same,MHC expression over the course of myoblast differentiation,[2]; 500 nM,did not alter MHC expression
same,binding affinity for p38β MAPK higher than for p38α MAPK,p38β MAPK,3 fold
